The source of these data is ChEMBL document CHEMBL5338734, “Anticancer Activity of Region B Capsaicin Analogs” (J Med Chem, 2023).

What is called IC50 is the concentration at which inhibition is half-maximal.

The subject of one data set is B16-F10. In words: Antiproliferative activity against B16-F10 cells assessed as inhibition of cell growth measured after 24 hrs by MTT assay. Conditions: Mus musculus, B16-F10, 24 h. The data set is classed as functional, cell-based. (Tetrazolium assays rely on reduction of a dye to a coloured formazan, in cell work by metabolically active cells.)
Data set [1] deals with SK-MEL-28. In words: Antiproliferative activity against human SK-MEL-28 cells assessed as inhibition of cell growth measured after 24 hrs by MTT assay. As to conditions: SK-MEL-28, 24 h. The data set is classed as functional, cell-based.
For another data set, the system named is Jurkat. In words: Induction of apoptosis in human Jurkat cells assessed as increase in apoptotic cells by propidium iodide staining based flow cytometry. The data set is classed as functional, cell-based. For orientation: A flow cytometer gives signals particle by particle.
For data set [2], the system named is MCF7. In words: Antiproliferative activity against human MCF7 cells assessed as inhibition of cell growth incubated for 24 hrs by MTT assay. Conditions: MCF7, 24 h. The data set is classed as functional, cell-based.
The test system of the next data set is NCI-H1299. The experiment in a line: Antiproliferative activity against human NCI-H1299 cells assessed as inhibition of cell growth measured after 24 hrs by MTT assay. The data set is classed as functional, cell-based. Conditions: NCI-H1299, 24 h.
In data set [3] the test system is CAL-27. In words: Antitumor activity against human CAL-27 cells xenografted in mouse assessed as fold decrease in tumor size at 12 mg/kg, ip measured for 4 weeks by hematoxylin and eosin staining based analysis relative to control. The data set is classed as functional.
The test system of data set [4] is CAL-27. In words: Antitumor activity against human CAL-27 cells xenografted in mouse assessed as mean tumor volume at 12 mg/kg, ip measured for 4 weeks by hematoxylin and eosin staining based analysis (reference value: 541 […]). The data set is classed as functional. (A xenograft is tissue or cells of one species grown in another, often human tumour cells in immunodeficient mice.)

The subject of the next data set is DU-145. The experiment in a line: Antiproliferative activity against human DU-145 cells assessed as inhibition of cell growth. The data set is classed as functional, cell-based.
In the next data set the test system is SCC-9. The experiment in a line: Antiproliferative activity against human SCC-9 cells assessed as inhibition of cell growth incubated for 24 hrs by MTS assay. The data set is classed as functional, cell-based. Conditions: SCC-9, 24 h.
In the next data set the test system is SCC-4. The experiment in a line: Antiproliferative activity against human SCC-4 cells assessed as inhibition of cell growth incubated for 24 hrs by MTS assay. The data set is classed as functional, cell-based. Conditions: SCC-4, 24 h.
The nature of data set [5]: Cytotoxicity against human OKF6/TERT-2 cells assessed as inhibition of cell growth at >7.5 uM incubated for 24 hrs by MTS assay. The data set is classed as toxicity, cell-based. As to conditions: read-out: Activity.
The test system of another data set is HSC-3. The experiment in a line: Antiproliferative activity against human HSC-3 cells assessed as inhibition of cell growth incubated for 24 hrs by MTS assay. The data set is classed as functional, cell-based. As to conditions: HSC-3, 24 h.
Data set [6] concerns CAL-27. The experiment in a line: Antiproliferative activity against human CAL-27 cells assessed as inhibition of cell growth incubated for 24 hrs by MTS assay. The data set is classed as functional, cell-based. As to conditions: CAL-27, 24 h.
In data set [7] the test system is CAL-27. The experiment in a line: Antiproliferative activity against human CAL-27 cells assessed as reduction of cell growth at 500 uM incubated for 24 hrs in presence of gefitinib by MTS assay. The data set is classed as functional. Set-up: scale not given: the % may be the effect or the level left.
The next data set deals with PC-3. In words: Antiproliferative activity against human PC-3 cells assessed as inhibition of cell growth incubated for 24 hrs by MTS assay. Conditions: PC-3, 24 h. The data set is classed as functional, cell-based.
Data set [8] concerns MDA-MB-231. The experiment in a line: Antiproliferative activity against human MDA-MB-231 cells assessed as inhibition of cell growth incubated for 24 hrs by MTS assay. The data set is classed as functional, cell-based. As to conditions: MDA-MB-231, 24 h.
In data set [9] the test system is CAL-27. The experiment in a line: Antiproliferative activity against human CAL-27 cells assessed as reduction of cell growth at 500 uM incubated for 24 hrs by MTS assay. The data set is classed as functional. Set-up: scale not given: the % may be the effect or the level left.
In data set [10] the test system is CAL-27. The experiment in a line: Antiproliferative activity against human CAL-27 cells assessed as reduction of cell growth at 500 uM incubated for 24 hrs in presence of cisplatin by MTS assay. The data set is classed as functional. Details: scale not given: the % may be the effect or the level left.
Another data set relates to NCI-H460. In words: Antiproliferative activity against human NCI-H460 cells assessed as inhibition of cell growth incubated for 24 hrs by MTS assay. The data set is classed as functional, cell-based. As to conditions: NCI-H460, 24 h.
Another data set relates to HeLa. The experiment in a line: Antiproliferative activity against human HeLa cells assessed as inhibition of cell growth incubated for 24 hrs by MTS assay. The data set is classed as functional, cell-based.
A further data set concerns SBcl2. In words: Antiproliferative activity against human SBcl2 cells assessed as inhibition of cell growth incubated for 24 hrs by MTT assay. Conditions: SBcl2, 24 h. The data set is classed as functional, cell-based.
Data set [11] in a line: Antiproliferative activity against human SK-MEL-85 cells assessed as inhibition of cell growth incubated for 24 hrs by MTT assay. The data set is classed as functional, cell-based. As to conditions: SK-MEL-85, 24 h.
For data set [12], the system named is SK-MEL-28. The experiment in a line: Antiproliferative activity against human SK-MEL-28 cells assessed as inhibition of cell growth incubated for 24 hrs by MTT assay. The data set is classed as functional, cell-based. Conditions: SK-MEL-28, 24 h.
The test system of data set [13] is CAL-27. The experiment in a line: Antiproliferative activity against human CAL-27 cells assessed as reduction of cell growth at 100 nM incubated for 24 hrs by MTS assay. The data set is classed as functional. Details: scale not given: the % may be the effect or the level left.
For a further data set, the system named is BT-474. In words: Antiproliferative activity against human BT-474 cells assessed as inhibition of cell growth by MTT assay. The data set is classed as functional, cell-based.
Data set [14] deals with MDA-MB-231. In words: Antiproliferative activity against human MDA-MB-231 cells assessed as inhibition of cell growth by MTT assay. The data set is classed as functional, cell-based.
Data set [15] deals with MCF7. In words: Antiproliferative activity against human MCF7 cells assessed as inhibition of cell growth by MTT assay. The data set is classed as functional, cell-based.
The test system of another data set is 5637. In words: Antiproliferative activity against human 5637 cells assessed as inhibition of cell growth measured after 24 hrs by MTT assay. The data set is classed as functional, cell-based. Conditions: Homo sapiens, 5637, 24 h.
The subject of a further data set is T-24. The experiment in a line: Antiproliferative activity against human T24 cells assessed as inhibition of cell growth measured after 24 hrs by MTT assay. The data set is classed as functional, cell-based. Conditions: T-24, 24 h.

Each structure is given as a SMILES string. Bounds are passed on as bounds.

For `CCCCCCCCCCC(=O)OCc1ccc2c(c1)OCO2`, the 50% inhibitory concentration (IC50) with B16-F10 was found to be 87 µM; in the data set with SK-MEL-28 [1], 85 µM.
In the case of `COc1cc(CNC(=O)CCCC/C=C/C(C)C)ccc1O` [CAPSAICIN], the IC50 in the data set with Jurkat was approximately 128 µM; in the data set with MCF7 [2], approximately 53 µM; with NCI-H1299 it was not below 200 µM; in the data set with B16-F10, 117 µM.
`COc1cc(COC(=O)CCCCCC(C)C)ccc1O`: in the data set on Jurkat, the concentration for half-maximal inhibition (IC50) was approximately 70 µM.
Turning to `Oc1cc2c(cc1O)CN(C(=S)NCCc1ccc(Cl)cc1)CCC2` [CAPSAZEPINE], the “fold change (FC)” value in the data set with CAL-27 [3] was 2. Moreover, the Activity in the data set on CAL-27 [4] stood at 269 mm3. Moreover, in the data set on DU-145, the half-inhibitory concentration (IC50) was 54 µM.
As to `Oc1cc2c(cc1O)CN(C(=S)NCCc1ccc(Cl)cc1)CC2`, the “fold change (FC)” value in the data set with CAL-27 [3] came out at 2.6. Also, the Activity in the data set with CAL-27 [4] amounted to 211 mm3. Further, the half-inhibitory concentration (IC50) in the data set with SCC-9, with SCC-4, with HSC-3 and in the data set with CAL-27 [6] was 2.5 µM in each case. The inhibition at 24 h in data set [5] was determined as 20%.
For the compound `Oc1cc2c(cc1O)C(c1ccccc1)N(C(=S)NCCc1ccc(Cl)cc1)CC2` (stereo not given), the “fold change (FC)” value in the data set on CAL-27 [3] was 4. For the same compound, the Activity was 333 mm3 in the data set with CAL-27 [4], approximately 80% with CAL-27 [7], 20% in the data set with CAL-27 [9] and 95% in the data set on CAL-27 [10]. For the same compound, the IC50 in the data set on SCC-9 is 1 µM; with PC-3, 1 µM; in the data set on MDA-MB-231 [8] it was 2.5 µM; in the data set on SCC-4, 1 µM; with NCI-H460 it was 7.5 µM; in the data set on HeLa, approximately 5 µM. Also, the IC50 in the data set with HSC-3 and in the data set with CAL-27 [6] was 1 µM in each case. Also, the inhibition at 24 h in data set [5] is 20%.
As for `Oc1cc2c(cc1O)C(c1ccccc1)N(C(=S)NCc1ccccc1)CC2` (stereo not given), the “fold change (FC)” value with CAL-27 [3] was 1.6. Further, the Activity in the data set with CAL-27 [4] is on record as 134 mm3. In addition, the IC50 with SCC-9, with SCC-4, in the data set with HSC-3 and with CAL-27 [6] was 20 µM in each case. The inhibition at 24 h in data set [5] is 20%.
`O=S(=O)(NCc1ccc2c(c1)OCO2)c1ccccc1`: the half-maximal inhibitory concentration (IC50) in the data set on MCF7 [2] amounted to 32 µM; in the data set with SBcl2, 17.5 µM; in data set [11] it was 15.7 µM; with SK-MEL-28 [12], 19.1 µM.
For `COc1cc2ncnc(Nc3ccc(F)c(Cl)c3)c2cc1OCCCN1CCOCC1` [GEFITINIB], the Activity with CAL-27 [13] is 50%.
Take `CCOC(=O)C1=C(c2ccccc2)NC(C)=C(C(=O)SCCOC)C1CC` (stereo not given): the 50% inhibitory concentration (IC50) in the data set on BT-474 turned out to be 10.6 µM; in the data set with MDA-MB-231 [14] it was 40.8 µM; with MCF7 [15], 3 µM.
Regarding `C=C(C)[C@]12C[C@@H](C)[C@@]34O[C@](Cc5ccccc5)(O[C@@H]1[C@@H]3C=C(COC(=O)Cc1ccc(O)c(OC)c1)C[C@]1(O)C(=O)C(C)=C[C@@H]41)O2` [RESINIFERATOXIN], the half-maximal inhibitory concentration (IC50) was 19.9 µM with 5637 and approximately 21.4 µM with T-24.
With `COc1ccc(CC(=O)OCc2ccc3c(c2)OCO3)cc1`, the IC50 in the data set on NCI-H1299 turned out to be 187 µM; in the data set on B16-F10, 117 µM.
